Earlier results as cited in patent publication US20260014261A1, “TARGETED PROTEIN MODIFICATION” (Weatherwax Biotechnologies Corporation, priority 2022, published 2026).

Molecular target: p53 (Homo sapiens, UniProt P04637)
Conditions: read-out: binding affinity (Kd) for p53

Sequence of p53 (P04637 whole entry): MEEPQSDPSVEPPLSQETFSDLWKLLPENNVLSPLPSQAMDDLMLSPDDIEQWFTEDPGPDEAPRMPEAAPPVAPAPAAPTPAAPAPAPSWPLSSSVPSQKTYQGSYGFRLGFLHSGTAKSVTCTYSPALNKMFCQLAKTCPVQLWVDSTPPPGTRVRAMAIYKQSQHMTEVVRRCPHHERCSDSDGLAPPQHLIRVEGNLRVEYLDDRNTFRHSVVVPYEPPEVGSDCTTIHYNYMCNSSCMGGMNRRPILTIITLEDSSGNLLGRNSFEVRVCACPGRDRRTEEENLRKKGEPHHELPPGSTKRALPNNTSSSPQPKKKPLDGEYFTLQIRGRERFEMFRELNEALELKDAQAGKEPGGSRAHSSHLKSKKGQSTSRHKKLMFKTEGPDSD

Kd: ~1000 nM
Compound: CN(C)CCCNc1nc(CN2CCN(C(c3ccc(Cl)cc3)c3ccc(Cl)cc3)CC2)nc2ccccc12 [SCH 529074]
